Measured values: patent US6689767B2, “Triterpenes having antibacterial activity” (Regents of the University of Minnesota, priority 2000, dated 2004)
Values after ≈ are worked out from the molar mass of the structure shown.

Key:
Escherichia coli = test: Kirby-Bauer disk diffusion growth inhibition, Escherichia coli; format: cell-based; conditions: 10 mg/ml in DMSO, 100 μl on 10 mm disk, 18 hours 37° C.
Summary of the method: (§1)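 Bacteria grown 18 h at 37 °C in nutrient broth, 0.5 ml swabbed onto Mueller-Hinton agar; 10 mm disks loaded with 100 μl compound in DMSO or water (additional compounds at 10 mg/ml in DMSO). Inhibition zones measured after 18 h at 37 °C, in triplicate.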

Staphylococcus aureus = test: Kirby-Bauer disk diffusion growth inhibition, Staphylococcus aureus; format: cell-based; conditions: for Zone of inhibition Staphylococcus aureus: 100 μl on 10 mm disk, 18 hours 37° C.; for Active against: Table 1 summary, S. aureus; for effectiveness against S. aureus: Tables 1a and 1b
Summary of the method: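 S. aureus broth culture (18 h, 37 °C) spread on Mueller-Hinton agar; 10 mm disks carrying 100 μl compound solution in DMSO or water, one set at 10 mg/ml in DMSO. Inhibition zones measured after 18 h at 37 °C, in triplicate.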

Bacillus subtilis = test: Kirby-Bauer disk diffusion growth inhibition, Bacillus subtilis; format: cell-based; conditions: 10 mg/ml in DMSO, 100 μl on 10 mm disk, 18 hours 37° C.
Summary of the method: as §1

[1] = tested on: methicillin-resistant Staphylococcus aureus; test: Growth inhibition of methicillin-resistant Staphylococcus aureus; format: cell-based
Protocol: The compounds disclosed herein were tested for growth inhibition against four strains of bacteria: Escherichia coli, Staphylococcus aureus, methicillin-resistant Staphylococcus aureus, and Bacillus subtilis. […] They represent […]. E. coli is a gram-negative, non-spore forming, rod-shaped, opportunistic pathogen that resides in the human digestive tract. S. aureus is a gram positive coccus, is usually found morphologically as a […], and is an opportunistic human pathogen, often residing on or in the skin. B. subtilis is a gram positive spore-forming rod. Its native environment is the soil. The chemicals were tested for growth-inhibition of the bacteria by the Kirby-Bauer method. See, e.g., Microbiology, third edition; Lansing M. Prescott, John P. Harley, and Donald A. Klein; Wm. C. Brown Publishers.
Mueller-Hinton agar (Difco Lab, Michigan) was prepared according to the manufacturer's directions, and 20 ml was dispensed in each sterile petri dish. Sterile nutrient broth (Difco Lab, Michigan) was also prepared according to the manufacturer's directions.
Bacteria were grown in liquid nutrient broth for 18 hours at 37° C. until they were turbid.
An aliquot of 0.5 ml of cultured bacteria was aseptically transferred to the surface of a Mueller-Hinton agar plat, and spread using a cotton-tipped swab. […]
The zones of inhibition were measured after 18 hours growth at 37° C. […]

S. aureus = test: Minimum inhibitory concentration in tryptic soy broth, S. aureus; format: cell-based, Staphylococcus aureus; conditions: 24 hours 37° C., turbidity
Protocol: (§2) Sterile tryptic soy broth was prepared according to the manufacturer's instructions (Difco Lab, Michigan). To each tube containing 7 ml of broth, test compounds dissolved in DMSO were added at different concentrations in triplicate. The tubes were incubated for 24 hours at 37° C. and then turbidity was measured using a […]. The colorimeter was calibrated with sterile broth. The MIC was the lowest concentration that could prevent an increase in turbidity.

[2] = tested on: methicillin resistant S. aureus; test: Minimum inhibitory concentration in tryptic soy broth, methicillin resistant S. aureus; format: cell-based, Staphylococcus aureus; conditions: 24 hours 37° C., turbidity
Protocol: as §2

bacteria = test: Summary statements over the antibacterial assays above; format: cell-based; conditions: summary list

| Structure (SMILES) | Zone of inhibition Escherichia coli (Escherichia coli) | Zone of inhibition Staphylococcus aureus (Staphylococcus aureus; 10 mg/ml in DMSO) | Active against (Staphylococcus aureus) | effectiveness against S. aureus (Staphylococcus aureus) | amount applied to the disk that inhibited S. aureus (Staphylococcus aureus; disk diffusion assay, laboratory strain (not methicillin resistant)) | effectiveness against S. aureus compared with streptomycin (Staphylococcus aureus; laboratory strain (not methicillin resistant)) | Zone of inhibition Bacillus subtilis (Bacillus subtilis) | effectiveness against methicillin resistant S. aureus [1] | Active against ([1]; Table 1 summary, S. aureus methicillin resistant) | minimum inhibitory concentration (S. aureus) | MIC [2] | sensitivity of S. aureus (Staphylococcus aureus; Example 34, 10 mg/ml in DMSO) | active against at least one strain of bacteria in the assays above (bacteria) |
| --- | --- | --- | --- | --- | --- | --- | --- | --- | --- | --- | --- | --- | --- |
| C=C(C)[C@@H]1CC[C@]2(COC(=O)/C=C\C(=O)O)CC[C@]3(C)[C@H](CC[C@@H]4[C@@]5(C)CC[C@H](OC(=O)/C=C\C(=O)O)C(C)(C)[C@@H]5CC[C@]43C)[C@@H]12 [Betulin 3,28-dimaleate, Betulin-3,28-dimaleate] | 0 mm | 11.0 mm | S. aureus, | effective | 56 ng | more effective | 0 mm | effective | S. aureus methicillin | 2.3 µM (≈ 1.47 µg/mL) | 0.282 µM (≈ 0.18 µg/mL) | – | – |
| C=C(C)[C@@H]1CC[C@]2(COC(=O)c3ccccc3C(=O)O)CC[C@]3(C)[C@H](CC[C@@H]4[C@@]5(C)CC[C@H](OC(=O)c6ccccc6C(=O)O)C(C)(C)[C@@H]5CC[C@]43C)[C@@H]12 [Betulin 3,28-diphthalate, Betulin-3,28-diphthalate] | 0 mm | 10.0 mm | S. aureus | effective | – | – | 0 mm | – | – | 2.3 µM (≈ 1.7 µg/mL) | – | sensitive | active against at least one strain of bacteria |
